Data reported in patent US8952024B2, “Herbicidal pyrimidone derivatives” (E I du Pont de Nemours and Company, priority 2009, dated 2015).

Experiments:
Assay type in all cases: in vivo
corn (Zea mays) = assay: Test B pre-/postemergence plant response
Outline: (§1)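 Visual injury, 0–100 scale (100 = complete control), rated against controls after 13 to 15 days in greenhouse. Pre-emergence: seeds in loam/sand soil, treated at planting. Post-emergence: 1- to 4-leaf plants (2 to 18 cm) in peat/vermiculite medium. Compounds formulated in non-phytotoxic solvent with surfactant.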

[1] = tested on: bermudagrass (Cynodon dactylon); assay: Test B pre-/postemergence plant response
Outline: as §1

[2] = tested on: green foxtail (Setaria viridis); assay: Test B pre-/postemergence plant response
Outline: as §1

[3] = tested on: lambsquarters (Chenopodium album); assay: Test B pre-/postemergence plant response
Outline: as §1

[4] = tested on: giant foxtail (Setaria faberii); assay: Test B pre-/postemergence plant response
Outline: as §1

kochia (Kochia scoparia) = assay: Test B pre-/postemergence plant response
Outline: as §1

[5] = tested on: ragweed (common ragweed, Ambrosia elatior); assay: Test B pre-/postemergence plant response
Outline: as §1

soybean (Glycine max) = assay: Test B pre-/postemergence plant response
Outline: as §1

wild oat (Avena fatua) = assay: Test B pre-/postemergence plant response
Outline: as §1

[6] = tested on: cocklebur (Xanthium strumarium); assay: Test B pre-/postemergence plant response
Outline: as §1

[7] = tested on: pigweed (Amaranthus retroflexus); assay: Test B pre-/postemergence plant response
Outline: as §1

[8] = tested on: johnsongrass (Sorghum halepense); assay: Test B pre-/postemergence plant response
Outline: as §1

[9] = tested on: ducksalad (Heteranthera limosa); assay: Test B flooded paddy test
Outline: (§2)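 Each compound is added to standing floodwater (3 cm above soil, maintained) in pots of 2-leaf-stage plants; greenhouse exposure lasts 13–15 d before visual comparison with controls on a 0–100 control scale.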

rice (Oryza sativa) = assay: Test B flooded paddy test
Outline: as §2

[10] = tested on: umbrella sedge (Cyperus difformis); assay: Test B flooded paddy test
Outline: as §2

[11] = tested on: barnyardgrass (Echinochloa crus-galli); assay: Test B flooded paddy test
Outline: as §2

[12] = 62 g ai/ha, postemergence, 0 is no effect, 100 is complete control, 13 to 15 days
[13] = Flood, 31 g ai/ha, scale 0 to 100 (0 no effect, 100 complete control)

COCCn1c(-c2ccsc2)ncc(C(=O)C2=C(O)CCCC2=O)c1=O [Compound 97, 5-[(2-hydroxy-6-oxo-1-cyclohexen-1-yl)carbonyl]-3-(2-methoxyethyl)-2-(3-thienyl)-4(3H)-pyrimidinone]
Corn plant response rating (0 to 100 scale) (corn (Zea mays); [12]): 40
Corn plant response rating (crop injury, 0 = no effect, 100 = complete kill) at 31 g/ha (corn (Zea mays); Zea mays, post-emergence, 31 g ai/ha, postemergence, scale 0 to 100, 0 is no effect, 100 is complete control): 20%
Corn plant response rating (crop injury, 0 = no effect, 100 = complete kill) at 125 g/ha (corn (Zea mays); Zea mays, post-emergence, Postemergence, 125 g ai/ha, visual rating after 13 to 15 days, scale 0 (no effect) to 100 (complete control)): 60%
Corn plant response rating (crop injury, 0 = no effect, 100 = complete kill) at 250 g/ha (corn (Zea mays); Zea mays, post-emergence, Postemergence, 250 g ai/ha, scale 0 to 100 (0 no effect, 100 complete control)): 75%
Bermudagrass plant response rating (0 to 100 scale) [1, 12]: 95
pest or weed control at 31 g/ha ([1]; Cynodon dactylon, post-emergence, 31 g ai/ha, postemergence, scale 0 to 100, 0 is no effect, 100 is complete control, read-out: Plant response rating, Bermudagrass): 95%
pest or weed control at 125 g/ha ([1]; Cynodon dactylon, post-emergence, Postemergence, 125 g ai/ha, visual rating after 13 to 15 days, scale 0 (no effect) to 100 (complete control)): 95%
pest or weed control at 250 g/ha ([1]; Cynodon dactylon, post-emergence, Postemergence, 250 g ai/ha, scale 0 to 100 (0 no effect, 100 complete control), read-out: Plant response rating, Bermudagrass): 98%
Foxtail, Green plant response rating (0 to 100 scale) [2, 12]: 85
pest or weed control at 31 g/ha ([2]; Setaria viridis, post-emergence, 31 g ai/ha, postemergence, scale 0 to 100, 0 is no effect, 100 is complete control, read-out: Plant response rating, Foxtail, Green): 40%
pest or weed control at 250 g/ha ([2]; Setaria viridis, post-emergence, Postemergence, 250 g ai/ha, scale 0 to 100 (0 no effect, 100 complete control), read-out: Plant response rating, Foxtail, Green): 95%
Lambsquarters plant response rating (0 to 100 scale) [3, 12]: 100
pest or weed control at 31 g/ha ([3]; Chenopodium album, post-emergence, 31 g ai/ha, postemergence, scale 0 to 100, 0 is no effect, 100 is complete control, read-out: Plant response rating, Lambsquarters): 90%
pest or weed control at 250 g/ha ([3]; Chenopodium album, post-emergence, Postemergence, 250 g ai/ha, scale 0 to 100 (0 no effect, 100 complete control), read-out: Plant response rating, Lambsquarters): 100%
Foxtail, Giant plant response rating (0 to 100 scale) [4, 12]: 75
pest or weed control at 31 g/ha ([4]; Setaria faberi, post-emergence, 31 g ai/ha, postemergence, scale 0 to 100, 0 is no effect, 100 is complete control, read-out: Plant response rating, Foxtail, Giant): 60%
pest or weed control at 250 g/ha ([4]; Setaria faberi, post-emergence, Postemergence, 250 g ai/ha, scale 0 to 100 (0 no effect, 100 complete control), read-out: Plant response rating, Foxtail, Giant): 90%
Kochia plant response rating (0 to 100 scale) (kochia (Kochia scoparia); [12]): 90
pest or weed control at 31 g/ha (kochia (Kochia scoparia); Bassia scoparia, post-emergence, 31 g ai/ha, postemergence, scale 0 to 100, 0 is no effect, 100 is complete control, read-out: Plant response rating, Kochia): 65%
pest or weed control at 250 g/ha (kochia (Kochia scoparia); Bassia scoparia, post-emergence, Postemergence, 250 g ai/ha, scale 0 to 100 (0 no effect, 100 complete control), read-out: Plant response rating, Kochia): 100%
Ragweed plant response rating (0 to 100 scale) [5, 12]: 98
pest or weed control at 31 g/ha ([5]; Ambrosia artemisiifolia, post-emergence, 360 h, 31 g ai/ha, postemergence, scale 0 to 100, 0 is no effect, 100 is complete control, read-out: Plant response rating, Ragweed): 85%
pest or weed control at 250 g/ha ([5]; Ambrosia artemisiifolia, post-emergence, 360 h, Postemergence, 250 g ai/ha, scale 0 to 100 (0 no effect, 100 complete control), read-out: Plant response rating, Ragweed): 100%
Soybean plant response rating (0 to 100 scale) (soybean (Glycine max); [12]): 80
plant injury at 31 g/ha (soybean (Glycine max); Glycine max, post-emergence, 31 g ai/ha, postemergence, scale 0 to 100, 0 is no effect, 100 is complete control, read-out: Plant response rating, Soybean): 70%
plant injury at 250 g/ha (soybean (Glycine max); Glycine max, post-emergence, Postemergence, 250 g ai/ha, scale 0 to 100 (0 no effect, 100 complete control), read-out: Plant response rating, Soybean): 100%
Oat, Wild plant response rating (0 to 100 scale) (wild oat (Avena fatua); [12]): 5
pest or weed control at 31 g/ha (wild oat (Avena fatua); Avena fatua, post-emergence, 31 g ai/ha, postemergence, scale 0 to 100, 0 is no effect, 100 is complete control, read-out: Plant response rating, Oat, Wild): 0%
pest or weed control at 250 g/ha (wild oat (Avena fatua); Avena fatua, post-emergence, Postemergence, 250 g ai/ha, scale 0 to 100 (0 no effect, 100 complete control), read-out: Plant response rating, Oat, Wild): 10%
Cocklebur plant response rating (0 to 100 scale) [6, 12]: 100
pest or weed control at 31 g/ha ([6]; Xanthium strumarium, post-emergence, 31 g ai/ha, postemergence, scale 0 to 100, 0 is no effect, 100 is complete control, read-out: Plant response rating, Cocklebur): 95%
pest or weed control at 125 g/ha ([6]; Xanthium strumarium, post-emergence, Postemergence, 125 g ai/ha, visual rating after 13 to 15 days, scale 0 (no effect) to 100 (complete control)): 100%
pest or weed control at 250 g/ha ([6]; Xanthium strumarium, post-emergence, Postemergence, 250 g ai/ha, scale 0 to 100 (0 no effect, 100 complete control), read-out: Plant response rating, Cocklebur): 100%
Pigweed plant response rating (0 to 100 scale) [7, 12]: 100
pest or weed control at 31 g/ha ([7]; Amaranthus retroflexus, post-emergence, 31 g ai/ha, postemergence, scale 0 to 100, 0 is no effect, 100 is complete control, read-out: Plant response rating, Pigweed): 95%
pest or weed control at 250 g/ha ([7]; Amaranthus retroflexus, post-emergence, Postemergence, 250 g ai/ha, scale 0 to 100 (0 no effect, 100 complete control), read-out: Plant response rating, Pigweed): 100%
Johnsongrass plant response rating (0 to 100 scale) [8, 12]: 55
pest or weed control at 31 g/ha ([8]; Sorghum halepense, post-emergence, 31 g ai/ha, postemergence, scale 0 to 100, 0 is no effect, 100 is complete control, read-out: Plant response rating, Johnsongrass): 15%
pest or weed control at 250 g/ha ([8]; Sorghum halepense, post-emergence, Postemergence, 250 g ai/ha, scale 0 to 100 (0 no effect, 100 complete control), read-out: Plant response rating, Johnsongrass): 85%
Ducksalad plant response rating [9, 13]: 30
pest or weed control at 250 g/ha ([9]; Heteranthera limosa, 360 h, 250 g ai/ha, flooded paddy test, visual rating on 0 to 100 scale (0 no effect, 100 complete control) after 13 to 15 days, read-out: Plant response rating, Flood, Ducksalad): 70%
pest or weed control at 62 g/ha ([9]; Heteranthera limosa, 360 h, Flood (flooded paddy test), 62 g ai/ha, scale of 0 to 100 where 0 is no effect and 100 is complete control, 13 to 15 days, read-out: Plant response rating, Ducksalad): 30%
pest or weed control at 125 g/ha ([9]; Heteranthera limosa, 360 h, Flood (flooded paddy test), 125 g ai/ha, scale 0 to 100, 0 is no effect, 100 is complete control, 13 to 15 days, read-out: Plant response rating, Ducksalad): 30%
Rice plant response rating (rice (Oryza sativa); [13]): 0
plant injury at 250 g/ha (rice (Oryza sativa); Oryza sativa, 250 g ai/ha, flooded paddy test, visual rating on 0 to 100 scale (0 no effect, 100 complete control) after 13 to 15 days, read-out: Plant response rating, Flood, Rice): 40%
plant injury at 62 g/ha (rice (Oryza sativa); Oryza sativa, Flood (flooded paddy test), 62 g ai/ha, scale of 0 to 100 where 0 is no effect and 100 is complete control, 13 to 15 days, read-out: Plant response rating, Rice): 0%
plant injury at 125 g/ha (rice (Oryza sativa); Oryza sativa, Flood (flooded paddy test), 125 g ai/ha, scale 0 to 100, 0 is no effect, 100 is complete control, 13 to 15 days, read-out: Plant response rating, Rice): 0%
pest or weed control at 250 g/ha ([10]; Cyperus difformis, 360 h, 250 g ai/ha, flooded paddy test, visual rating on 0 to 100 scale (0 no effect, 100 complete control) after 13 to 15 days, read-out: Plant response rating, Flood, Sedge, Umbrella): 80%
pest or weed control at 62 g/ha ([10]; Cyperus difformis, 360 h, Flood (flooded paddy test), 62 g ai/ha, scale of 0 to 100 where 0 is no effect and 100 is complete control, 13 to 15 days, read-out: Plant response rating, Sedge, Umbrella): 40%
pest or weed control at 125 g/ha ([10]; Cyperus difformis, 360 h, Flood (flooded paddy test), 125 g ai/ha, scale 0 to 100, 0 is no effect, 100 is complete control, 13 to 15 days, read-out: Plant response rating, Sedge, Umbrella): 70%
Sedge, Umbrella plant response rating [10, 13]: 30
pest or weed control at 250 g/ha ([11]; Echinochloa crus-galli, 360 h, 250 g ai/ha, flooded paddy test, visual rating on 0 to 100 scale (0 no effect, 100 complete control) after 13 to 15 days, read-out: Plant response rating, Flood, Barnyardgrass): 75%
pest or weed control at 62 g/ha ([11]; Echinochloa crus-galli, 360 h, Flood (flooded paddy test), 62 g ai/ha, scale of 0 to 100 where 0 is no effect and 100 is complete control, 13 to 15 days, read-out: Plant response rating, Barnyardgrass): 40%
pest or weed control at 125 g/ha ([11]; Echinochloa crus-galli, 360 h, Flood (flooded paddy test), 125 g ai/ha, scale 0 to 100, 0 is no effect, 100 is complete control, 13 to 15 days, read-out: Plant response rating, Barnyardgrass): 60%
Barnyardgrass plant response rating [11, 13]: 30
